Measurements taken from article PMC5055294 (PLoS ONE, 2016).

Tests used:
CCRL2 [1] = test: Intracellular calcium mobilization (aequorin), CCRL2; format: cell-based, human; conditions: CCRL2, CHO-K1, aequorin
Protocol: Calcium mobilization was measured by an aequorin-based assay as previously described. Briefly, CHO-K1 cells stably expressing apoaequorin and the receptors of interest were incubated for 4 h in the dark in the presence of 5 μM coelenterazine h (Promega) and then diluted before use to reach the appropriate cell density.
(§1) A. Calcium mobilization was measured in CHO-K1 cells using the aequorin-based functional assay. […] The results were normalized for the basal luminescence of the cells in absence of agonist (0%) and the maximal response obtained for each cell line with 10 μM ATP (100%). […] Data represent the mean ± S.E.M. of three independent experiments C. […] Detection of total ERK1/2 by Western blotting was used to ascertain that an equal amount of material was loaded in each lane (lower panel). A typical experiment out of three performed independently is shown.

FPR1 = test: G protein BRET assay, negative control FPR1; format: cell-based; conditions: HEK293T, 100 nM chemerin, 1 minute
Protocol: (§2) G protein activation was assayed by BRET as previously described. Briefly, plasmids encoding G protein biosensors and receptors of interest were co-transfected into HEK293T cells by using the calcium phosphate method. Forty-eight hours after transfection, cells were washed twice with PBS, detached and resuspended in PBS plus 0.1% (w/v) glucose at room temperature. Cells were then distributed (80 μg of proteins per well) in a 96-well microplate (Optiplate, PerkinElmer). BRET^2 between RLuc8 and GFP10 was measured 1 min after addition of coelenterazine 400a/Deep blue C (5 μM, Gentaur). BRET readings were collected using an Infinite F200 reader (Tecan). The BRET signal was calculated as the ratio of emission of GFP10 (510–540 nm) to RLuc8 (370–450 nm).
(§3) As controls, cells expressing the α2c adrenergic receptor (Gαi/o) were stimulated with UK14304; cells expressing the AT1 angiotensin receptor (Gα11/q) were stimulated with angiotensin II; cells expressing the β2 adrenergic receptor (Gαs) were stimulated with isoproterenol; cells expressing thromboxane A2 receptor (Gα12/13) were stimulated with U46619. Data represent the mean ± S.E.M. of three to six independent experiments. Statistical significance was assessed using Tukey's test (***P < 0.0001).

CCRL2 [2] = test: β-arrestin BRET recruitment assay, CCRL2; format: cell-based, human; conditions: β-arrestin1-Rluc or β-arrestin2-Rluc, CCRL2-Venus, HEK293T; 100 nM chemerin; 25°C
Protocol: β-arrestin recruitment was measured by a BRET proximity assay as previously described. Briefly, plasmids encoding Rluc-β-arrestin 2 and receptors fused to Venus were cotransfected into HEK293T cells by using the calcium phosphate method. Twenty-four hours post-transfection, cells were collected and seeded in 96-well microplates (165306, Nunc) and cultured for an additional 24 h. Cells were then rinsed once with PBS and incubated in PBS plus 0.1% (w/v) glucose at 25°C to slow down kinetics of arrestin recruitment and improve temporal resolution. BRET^1 between RLuc and YFP was measured after the addition of coelenterazine h (5 μM, Promega). […] The BRET signal was calculated as the ratio of emission of YFP (520–570 nm) to RLuc (370–480 nm).
Fig 6 Recruitment of β-arrestins by CMKLR1 and GPR1. […] Data represent the mean ± S.E.M. of three independent experiments.

GPR1 [3] = conditions: ref [13], cited from earlier work
Description: (§4) […]. CMKLR1 is coupled to the Gi/o family of G proteins and in cells ...

[4] = tested on: leukocyte populations that express CMKLR1; conditions: ex vivo; dendritic cells, macrophages and natural killer cells; ref [1],[8]–[10]; cited from earlier work
Description: as §4

CCRL2 [5] = conditions: cited from earlier work; for calcium mobilization and chemotaxis through CCRL2: ref [20], not confirmed by other groups [23]
Description: as §4

CMKLR1 = conditions: cited from earlier work
Description: as §4

GPR44/CRTH2 = test: G protein BRET assay, negative control GPR44/CRTH2; format: cell-based; conditions: HEK293T, 100 nM chemerin, 1 minute
Protocol: as §2, §3

CCRL2 [6] = test: G protein BRET assay, CCRL2; format: cell-based, human; conditions: CCRL2, HEK293T; 100 nM chemerin, 1 minute
Protocol: as §2, §3

CCRL2 [7] = test: ERK1/2 phosphorylation in CHO-K1 cells, CCRL2; format: cell-based, human; conditions: 300 nM chemerin, immunoblot
Protocol: CHO-K1 and MEF cells stably expressing receptors of interest were starved for 12–18 h in serum-free medium prior to stimulation. […] Whole cell lysates were resolved on 10% Tris/Tricine polyacrylamide gels and transferred to nitrocellulose membranes. Phosphorylated ERK1/2 and total ERK1/2 were detected by using rabbit polyclonal anti-phospho-ERK1/2 (Cell Signaling #4370, 1:1,000) and anti-ERK1/2 (Cell Signaling #4695S, 1:2,000) antibodies. Chemiluminescent detection was performed using ECL-Plus reagent (Perkin Elmer).
as §1

GPR33 = test: G protein BRET assay, negative control GPR33; format: cell-based; conditions: HEK293T, 100 nM chemerin, 1 minute
Protocol: as §2, §3

CCRL2 [8] = test: Radiolabelled chemerin internalization (acid-wash), CCRL2; format: cell-based, human; conditions: CCRL2, CHO-K1; incubation at 28°C
Protocol: Cell surface receptor was detected by flow cytometry using a saturating concentration of antibodies specific for CMKLR1 (●), GPR1 (◯) or CCRL2 (△). Results were normalized for the fluorescence of unstimulated cells (100%) and for background fluorescence (0%). Data represent the mean ± S.E.M. of three independent experiments. […] Then, cells were either left at 4°C or shifted to 28°C to allow receptor internalization. After 90 minutes, cells were acid-washed and the amount of radioactivity remaining associated with the cells was measured. Data represent the mean ± S.E.M. of three independent experiments.

CCRL2 [9] = biological target: T1, CCRL2 (human, UniProt O00421 1-344); test: cell-based or functional assay
T1 sequence (looked up): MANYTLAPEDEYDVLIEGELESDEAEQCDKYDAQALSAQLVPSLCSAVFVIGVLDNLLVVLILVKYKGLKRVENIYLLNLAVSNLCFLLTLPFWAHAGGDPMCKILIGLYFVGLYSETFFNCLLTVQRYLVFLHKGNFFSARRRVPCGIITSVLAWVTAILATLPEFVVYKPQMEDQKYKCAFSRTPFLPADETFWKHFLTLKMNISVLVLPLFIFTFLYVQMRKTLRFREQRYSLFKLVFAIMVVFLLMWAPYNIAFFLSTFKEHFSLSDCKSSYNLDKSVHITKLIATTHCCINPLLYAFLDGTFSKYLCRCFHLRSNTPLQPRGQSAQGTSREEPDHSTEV

GPR1 [10] = biological target: T2, GPR1 (human, UniProt P46091 1-355); test: radioligand binding; competition: CHO-K1 cells expressing the receptor with 0.1 nM [125I]-chemerin as tracer and increasing concentrations of unlabelled chemerin or chemerin 9; 50 mM HEPES pH 7.4, 1 mM CaCl2, 5 mM MgCl2, 250 mM sucrose, 0.5% BSA; 30 min at room temperature; filtration; conditions: one partner purified
T2 construct: GPR1, human chemerin receptor, expressed on CHO-K1 cells; The functional rows with G protein biosensors (HEK293T, transfected) and with MEF cells also use this molecule; source: CHO-K1, stably expressing (Clone 8), on cells
T2 sequence (looked up): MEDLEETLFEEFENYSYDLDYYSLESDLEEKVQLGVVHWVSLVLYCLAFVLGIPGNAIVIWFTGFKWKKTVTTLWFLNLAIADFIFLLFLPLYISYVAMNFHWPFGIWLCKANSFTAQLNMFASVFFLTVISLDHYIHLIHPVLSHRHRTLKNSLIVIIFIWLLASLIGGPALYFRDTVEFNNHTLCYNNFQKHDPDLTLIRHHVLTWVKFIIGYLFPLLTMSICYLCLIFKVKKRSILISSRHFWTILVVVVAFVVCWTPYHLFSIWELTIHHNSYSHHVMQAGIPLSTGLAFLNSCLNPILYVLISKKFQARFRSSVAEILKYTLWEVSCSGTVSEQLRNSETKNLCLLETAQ

CCRL2 [11] = biological target: T1, CCRL2; test: as above; conditions: one partner purified

Molecule: Chemerin: small chemotactic protein, natural ligand of CMKLR1; purchased from R&D Systems
- calcium mobilization (CCRL2 [1]): generated no detectable signals
- G protein BRET signal (Gαi/o biosensors) (FPR1): generated signals of much weaker magnitude
- β-arrestin recruitment (CCRL2 [2]): CCRL2 does not recruit β-arrestins
- calcium mobilization (GPR1 [3]; GPR1, recombinant cell lines): activate weakly calcium mobilization in recombinant cell lines
- down-regulation of GPR1 (GPR1 [3]): induces its rapid down-regulation
- chemotaxis [4]: promotes chemotaxis of leukocyte populations that express CMKLR1
- calcium mobilization or ligand internalization (CCRL2 [5]; CCRL2, chemerin, ref [11]): does not induce calcium mobilization or ligand internalization
- recruitment of β-arrestin2 to CMKLR1 (CMKLR1; introduction, no reference given): induces the recruitment of β-arrestin2 to CMKLR1
- signaling in cells expressing CMKLR1 (CMKLR1; ref [7]): inhibits cAMP production and promotes phospholipase C activation, IP3 release, calcium mobilization as well as activation of PI3K and MAPK pathways
- G protein BRET signal (Gαi/o biosensors) (GPR44/CRTH2): generated signals of much weaker magnitude
- G protein activation (CCRL2 [6]): none of the G proteins tested were activated by GPR1 or CCRL2 upon chemerin stimulation
- phosphorylation of ERK1/2 (CCRL2 [7]): generated no detectable signals
- G protein BRET signal (Gαi/o biosensors) (GPR33): generated signals of much weaker magnitude

Molecule: CCL2: chemokine
- calcium mobilization and chemotaxis through CCRL2 (CCRL2 [5]): promotes calcium mobilization and chemotaxis

Molecule: CCL7: chemokine
- calcium mobilization and chemotaxis through CCRL2 (CCRL2 [5]): promotes calcium mobilization and chemotaxis

Molecule: [^125I]-chemerin: R&DSystems, custom labelling performed by Perkin Elmer; tracer
- radioactivity lost after acid-wash (chemerin internalization) (CCRL2 [8]): nearly all the radioactivity associated to cells expressing CCLR2 was lost after the acid-wash procedure

B1: CCL8: chemokine (protein, UniProt P80075 24-99, looked up)
C-C motif chemokine 8: QPDSVSIPITCCFNVINRKIPIQRLESYTRITNIQCPKEAVIFKTKRGKEVCADPKERWVRDSMKHLDQIFQNLKP
- calcium mobilization and chemotaxis through CCRL2 (CCRL2 [5]): promotes calcium mobilization and chemotaxis

B2: Chemerin (unlabelled) (ligand, human, UniProt Q99969 21-157, looked up)
chain: ELTEAQRRGLQVALEEFHKHPPVQWAFQETSVESAVDTPFPAGIFVRLEFKLQQTSCRKRDWKKPECKVRPNGRKRKCLACIKLGSEDKVLGRLVHCPIETQVLREAEEHQETQCLRVQRAGEDPHSFYFPGQFAFS
notes: chemerin, human; also called full length chemerin; full size chemerin; source: bought: R&D Systems
- t1/2 of down-regulation of the receptor from the cell surface (FACS, CHO-K1, 100 nM chemerin) (CCRL2 [9]): > 1 h
- pIC50 (GPR1 [10]): 9.9
- pIC50 (CCRL2 [11]): 9.1

B3: CCL5: chemokine (protein, UniProt P13501 24-91, looked up)
C-C motif chemokine 5: SPYSSDTTPCCFAYIARPLPRAHIKEYFYTSGKCSNPAVVFVTRKNRQVCANPEKKWVREYINSLEMS
- calcium mobilization and chemotaxis through CCRL2 (CCRL2 [5]): promotes calcium mobilization and chemotaxis
